Values of other authors as cited in patent publication US6472370B1, “Anticonvulsant derivatives useful in treating post traumatic stress disorder” (Ortho-McNeil Pharmaceutical, Inc., priority 1998, dated 2002).
Where two headings read alike, the source gives them in different places.

Columns and labels:
[1] = test system: simple and complex partial seizures and secondarily generalized seizures; conditions: clinical trials of human epilepsy; adjunctive therapy or monotherapy
[2] = test system: seizures in several rodent models of epilepsy
kindling seizures = conditions: animal (rodent) model of kindling

Compound: CC1(C)O[C@@H]2[C@@H](CO[C@@]3(COS(N)(=O)=O)OC(C)(C)O[C@@H]23)O1 [topiramate, 2,3:4,5-bis-O-(1-methylethylidene)-β-D-fructopyranose sulfamate]
- efficacy in treating simple and complex partial seizures and secondarily generalized seizures [1]: effective
- block of seizures [2]: effectively block seizures
- block of seizures in kindled epilepsy / kindling seizures (kindling seizures): effectively block seizures
- block of seizures in kindled epilepsy / kindling seizures (kindling seizures; listed as Topiramate): effective
